Laboratory results as given in BindingDB's records for doi:10.1124/jpet.102.047183 (Abbott Laboratories, 2003).
Where “and” joins values, the source holds several entries; their conditions need not be identical. Identical values can stand only once.

Assays:
Hrh3 protein = Hrh3 protein (Rattus norvegicus, UniProt Q5PPG3)
[1] = target: T1, Alpha-2A adrenergic receptor (Homo sapiens, UniProt P08913)
T1 sequence (P08913 whole entry): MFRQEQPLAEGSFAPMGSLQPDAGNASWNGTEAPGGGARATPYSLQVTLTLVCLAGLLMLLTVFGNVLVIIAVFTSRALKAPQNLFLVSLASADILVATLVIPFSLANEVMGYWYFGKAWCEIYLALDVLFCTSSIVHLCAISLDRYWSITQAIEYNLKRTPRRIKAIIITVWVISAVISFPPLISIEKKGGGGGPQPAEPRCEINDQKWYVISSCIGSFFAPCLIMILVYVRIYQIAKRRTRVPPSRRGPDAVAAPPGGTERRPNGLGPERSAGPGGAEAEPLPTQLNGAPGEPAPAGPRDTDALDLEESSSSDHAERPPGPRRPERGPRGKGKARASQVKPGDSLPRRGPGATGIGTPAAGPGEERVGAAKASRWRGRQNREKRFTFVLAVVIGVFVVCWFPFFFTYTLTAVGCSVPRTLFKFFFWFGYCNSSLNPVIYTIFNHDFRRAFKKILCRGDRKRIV

Histamine H3 receptor [2] = target: Histamine H3 receptor (Cavia porcellus, UniProt Q9JI35)
Chain of Histamine H3 receptor (Cavia porcellus, UniProt Q9JI35) (Q9JI35 whole entry): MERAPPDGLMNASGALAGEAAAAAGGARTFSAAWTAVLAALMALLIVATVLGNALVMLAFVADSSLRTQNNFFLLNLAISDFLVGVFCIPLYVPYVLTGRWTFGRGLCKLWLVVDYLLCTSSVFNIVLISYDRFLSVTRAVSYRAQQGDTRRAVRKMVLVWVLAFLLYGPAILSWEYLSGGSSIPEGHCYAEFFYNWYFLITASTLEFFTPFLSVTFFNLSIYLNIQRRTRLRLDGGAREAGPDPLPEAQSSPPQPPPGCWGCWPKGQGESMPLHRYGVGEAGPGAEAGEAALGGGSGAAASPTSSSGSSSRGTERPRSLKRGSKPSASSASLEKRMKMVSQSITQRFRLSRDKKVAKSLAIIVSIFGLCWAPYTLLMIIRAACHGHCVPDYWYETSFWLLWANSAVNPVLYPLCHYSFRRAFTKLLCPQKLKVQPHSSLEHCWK

Histamine H1 receptor = Histamine H1 receptor (Homo sapiens, UniProt P35367)
Chain of Histamine H1 receptor (P35367 whole entry): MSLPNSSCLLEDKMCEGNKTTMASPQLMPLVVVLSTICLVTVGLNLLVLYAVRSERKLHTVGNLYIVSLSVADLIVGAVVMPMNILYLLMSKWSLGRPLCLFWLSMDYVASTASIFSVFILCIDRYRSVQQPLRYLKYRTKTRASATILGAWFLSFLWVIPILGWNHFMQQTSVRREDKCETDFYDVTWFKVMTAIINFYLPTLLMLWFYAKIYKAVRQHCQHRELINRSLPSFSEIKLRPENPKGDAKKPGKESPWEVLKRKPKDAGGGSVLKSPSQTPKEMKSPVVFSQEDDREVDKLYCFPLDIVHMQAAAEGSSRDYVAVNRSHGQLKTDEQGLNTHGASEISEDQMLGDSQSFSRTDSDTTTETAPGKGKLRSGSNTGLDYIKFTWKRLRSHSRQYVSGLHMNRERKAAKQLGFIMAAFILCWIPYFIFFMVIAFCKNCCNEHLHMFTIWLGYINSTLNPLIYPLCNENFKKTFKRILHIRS

[3] = target: T2, 5-hydroxytryptamine receptor 3A (Rattus norvegicus, UniProt P35563)
T2 sequence (P35563 whole entry): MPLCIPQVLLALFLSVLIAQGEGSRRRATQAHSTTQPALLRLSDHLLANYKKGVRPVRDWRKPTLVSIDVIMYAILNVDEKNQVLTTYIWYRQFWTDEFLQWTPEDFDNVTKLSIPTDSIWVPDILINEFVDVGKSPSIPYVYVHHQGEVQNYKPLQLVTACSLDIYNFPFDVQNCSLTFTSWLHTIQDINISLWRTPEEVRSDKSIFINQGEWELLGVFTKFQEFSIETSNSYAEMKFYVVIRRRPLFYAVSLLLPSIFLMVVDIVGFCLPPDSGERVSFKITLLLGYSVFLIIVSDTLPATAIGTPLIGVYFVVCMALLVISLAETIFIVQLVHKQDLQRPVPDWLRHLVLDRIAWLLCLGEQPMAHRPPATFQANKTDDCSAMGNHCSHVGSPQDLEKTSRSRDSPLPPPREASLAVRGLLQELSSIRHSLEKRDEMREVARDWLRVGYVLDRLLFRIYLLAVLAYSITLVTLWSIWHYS

Histamine H2 receptor = Histamine H2 receptor (Homo sapiens, UniProt P25021)
Chain of Histamine H2 receptor (P25021 whole entry): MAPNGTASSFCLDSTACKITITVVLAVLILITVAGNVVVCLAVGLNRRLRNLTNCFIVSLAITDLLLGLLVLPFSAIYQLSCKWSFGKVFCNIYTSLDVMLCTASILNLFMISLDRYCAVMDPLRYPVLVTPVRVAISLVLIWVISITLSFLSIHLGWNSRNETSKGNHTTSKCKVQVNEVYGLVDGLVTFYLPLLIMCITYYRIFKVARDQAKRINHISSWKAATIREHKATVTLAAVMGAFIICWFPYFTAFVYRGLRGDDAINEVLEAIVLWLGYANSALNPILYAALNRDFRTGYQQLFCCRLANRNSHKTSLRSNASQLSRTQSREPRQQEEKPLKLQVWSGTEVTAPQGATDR

Histamine receptor H3 = Histamine receptor H3 (Canis lupus familiaris, UniProt Q865E3)
Chain of Histamine receptor H3 (Q865E3 whole entry): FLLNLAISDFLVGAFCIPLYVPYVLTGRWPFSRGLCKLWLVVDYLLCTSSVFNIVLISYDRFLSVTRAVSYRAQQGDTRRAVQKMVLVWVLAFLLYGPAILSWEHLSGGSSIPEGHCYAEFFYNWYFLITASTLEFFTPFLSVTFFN

Histamine H4 receptor = Histamine H4 receptor (Homo sapiens, UniProt Q9H3N8)
Chain of Histamine H4 receptor (Q9H3N8 whole entry): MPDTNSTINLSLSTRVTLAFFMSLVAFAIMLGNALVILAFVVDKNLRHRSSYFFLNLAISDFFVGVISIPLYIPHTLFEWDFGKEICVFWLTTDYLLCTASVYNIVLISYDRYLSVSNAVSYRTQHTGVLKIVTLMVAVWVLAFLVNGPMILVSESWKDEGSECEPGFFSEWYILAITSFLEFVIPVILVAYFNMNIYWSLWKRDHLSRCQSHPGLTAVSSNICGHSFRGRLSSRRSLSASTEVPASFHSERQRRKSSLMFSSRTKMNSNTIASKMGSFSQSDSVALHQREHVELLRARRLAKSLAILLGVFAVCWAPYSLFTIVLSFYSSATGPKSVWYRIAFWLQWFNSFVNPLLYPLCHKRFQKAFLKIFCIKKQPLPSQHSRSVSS

[4] = target: T3, Alpha-2C adrenergic receptor (Homo sapiens, UniProt P18825)
T3 sequence (P18825 whole entry): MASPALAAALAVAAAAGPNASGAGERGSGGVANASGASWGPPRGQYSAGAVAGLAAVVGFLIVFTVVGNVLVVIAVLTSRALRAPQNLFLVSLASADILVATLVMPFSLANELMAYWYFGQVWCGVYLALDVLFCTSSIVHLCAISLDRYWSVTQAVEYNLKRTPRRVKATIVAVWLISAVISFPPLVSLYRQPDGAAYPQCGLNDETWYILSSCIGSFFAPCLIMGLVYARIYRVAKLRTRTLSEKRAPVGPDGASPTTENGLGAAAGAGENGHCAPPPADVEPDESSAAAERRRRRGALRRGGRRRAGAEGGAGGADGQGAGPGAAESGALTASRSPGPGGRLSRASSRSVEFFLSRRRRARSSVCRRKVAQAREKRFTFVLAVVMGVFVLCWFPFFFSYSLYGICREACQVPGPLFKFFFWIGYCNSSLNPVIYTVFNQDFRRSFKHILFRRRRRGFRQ

Histamine H3 receptor [5] = target: Histamine H3 receptor (Homo sapiens, UniProt Q9Y5N1)
Chain of Histamine H3 receptor (Homo sapiens, UniProt Q9Y5N1) (Q9Y5N1 whole entry): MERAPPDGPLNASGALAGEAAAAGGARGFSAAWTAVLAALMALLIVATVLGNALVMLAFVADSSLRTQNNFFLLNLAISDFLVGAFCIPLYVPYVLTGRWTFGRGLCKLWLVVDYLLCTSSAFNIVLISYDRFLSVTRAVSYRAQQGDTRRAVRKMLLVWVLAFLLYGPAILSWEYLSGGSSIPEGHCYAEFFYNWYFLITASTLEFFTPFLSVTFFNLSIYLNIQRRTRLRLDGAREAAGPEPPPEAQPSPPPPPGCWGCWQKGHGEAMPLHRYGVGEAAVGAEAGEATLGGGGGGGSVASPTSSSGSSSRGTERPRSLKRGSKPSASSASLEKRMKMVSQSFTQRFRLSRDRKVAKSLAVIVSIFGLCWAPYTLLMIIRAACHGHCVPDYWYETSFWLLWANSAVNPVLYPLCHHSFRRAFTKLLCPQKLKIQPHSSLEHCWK

Chain of Hrh3 protein (Q5PPG3 whole entry): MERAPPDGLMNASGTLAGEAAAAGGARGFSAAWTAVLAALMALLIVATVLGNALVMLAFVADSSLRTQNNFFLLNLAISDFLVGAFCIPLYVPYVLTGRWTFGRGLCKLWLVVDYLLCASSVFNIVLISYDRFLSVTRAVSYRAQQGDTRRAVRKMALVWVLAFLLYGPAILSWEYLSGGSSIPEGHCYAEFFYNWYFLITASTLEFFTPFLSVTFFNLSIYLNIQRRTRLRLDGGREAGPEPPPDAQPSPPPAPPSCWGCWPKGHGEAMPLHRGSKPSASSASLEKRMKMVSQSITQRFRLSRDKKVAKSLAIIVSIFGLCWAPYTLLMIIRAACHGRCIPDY

Q: For `O=C(c1ccc(OCCCc2cnc[nH]2)cc1)C1CC1`, which Ki (Hrh3 protein) is on record?
A: 0.51 nM and 0.63 nM

Q: What about the Ki [1] of the same molecule?
A: 42.7 nM

Q: What about the Ki (Histamine H3 receptor [2]) of the same molecule?
A: 1.74 nM

Q: What about the Ki (Histamine H1 receptor) of the same molecule?
A: > 10000 nM

Q: What about the Ki [3] of the same molecule?
A: 302 nM

Q: What about the Ki (Histamine H2 receptor) of the same molecule?
A: > 10000 nM

Q: What about the Ki (Histamine receptor H3) of the same molecule?
A: 5.75 nM

Q: What about the Ki (Histamine H4 receptor) of the same molecule?
A: 1860 nM

Q: For `S=C(NC1CCCCC1)N1CCC(c2cnc[nH]2)CC1`, which Ki (Hrh3 protein) is on record?
A: 3.63 nM and 7.08 nM

Q: And the Ki [1]?
A: 126 nM

Q: What about the Ki [4] of the same molecule?
A: 347 nM

Q: What about the Ki (Histamine H3 receptor [2]) of the same molecule?
A: 4.57 nM

Q: What about the Ki (Histamine H1 receptor) of the same molecule?
A: > 10000 nM

Q: What about the Ki [3] of the same molecule?
A: 2290 nM

Q: What about the Ki (Histamine H2 receptor) of the same molecule?
A: > 10000 nM

Q: What about the Ki (Histamine receptor H3) of the same molecule?
A: 6.76 nM

Q: Which Ki [1] does the source give for `NC(=NCc1ccc(Cl)cc1)SCCCc1cnc[nH]1` [VUF 9153] here?
A: 17.4 nM

Q: What about the Ki [4] of the same molecule?
A: 15.9 nM

Q: And the Ki (Histamine H3 receptor [2])?
A: 0.22 nM

Q: And the Ki (Histamine H1 receptor)?
A: 6310 nM

Q: And the Ki [3]?
A: 7.41 nM

Q: And the Ki (Histamine H2 receptor)?
A: 2510 nM

Q: And the Ki (Histamine receptor H3)?
A: 0.08 nM

Q: And the Ki (Histamine H4 receptor)?
A: 41.7 nM

Q: With `C[C@@H](NC(=O)c1ccco1)C(=O)N1CCN(CCCOc2ccc(C(=O)C3CC3)cc2)CC1` as the molecule, how does the Ki (Hrh3 protein) read?
A: 0.71 nM and 0.72 nM

Q: What about the Ki [1] of the same molecule?
A: > 10000 nM

Q: And the Ki [4]?
A: 2400 nM

Q: What about the Ki (Histamine H3 receptor [2]) of the same molecule?
A: 2.4 nM

Q: And the Ki (Histamine H1 receptor)?
A: 3980 nM

Q: What about the Ki [3] of the same molecule?
A: > 10000 nM

Q: And the Ki (Histamine H2 receptor)?
A: > 10000 nM

Q: What about the Ki (Histamine receptor H3) of the same molecule?
A: 4.27 nM

Q: And the Ki (Histamine H4 receptor)?
A: > 10000 nM

Q: `CCn1c(=O)[nH]c(=O)c2conc21` [A-304121] was tested. Which Ki (Hrh3 protein) did it give?
A: 2.51 nM and 1.26 nM

Q: And the Ki [1]?
A: > 10000 nM

Q: What about the Ki [4] of the same molecule?
A: 2880 nM

Q: And the Ki (Histamine H3 receptor [2])?
A: 17.4 nM

Q: And the Ki (Histamine H1 receptor)?
A: > 10000 nM

Q: What about the Ki (Histamine H2 receptor) of the same molecule?
A: > 10000 nM

Q: And the Ki (Histamine receptor H3)?
A: 46.8 nM

Q: And the Ki (Histamine H3 receptor [5])?
A: 759 nM and 813 nM

Q: What about the Ki (Histamine H4 receptor) of the same molecule?
A: > 10000 nM
